Measurements from patent US20240199651A1, “ANTIBACTERIAL COMPOUNDS” (JANSSEN SCIENCES IRELAND UNLIMITED COMPANY, priority 2021, published 2024).
pIC50: −log10 of the molar value. Like-named read-outs stand apart in the source and are kept apart here.

Key:
[1] = LM CLint (microsomal stability), human; format: in vitro ADME; details: for microsomal CLint at 1 µM: liver microsomes, read-out: CLint Microsomes, Human (h)
Description: (§1) The compounds of the invention/examples may have advantages associated with in vitro potency, kill kinetics (i.e. bactericidal effect) in vitro, PK properties, food effect, safety/toxicity (including liver toxicity, coagulation, 5-LO oxygenase), metabolic stability, Ames II negativity, MNT negativity, aqueous based solubility (and ability to formulate) and/or cardiovascular effect e.g. on animals (e.g. anesthetized guinea pig). Data that is generated/calculated may be obtained using standard methods/assays, for instance that are available in the literature or which may be performed by a supplier (e.g. Microsomal Stability Assay—Cyprotex, Mitochondrial toxicity (Glu/Gal) assay—Cyprotex, as well as literature CYP cocktail inhibition assays). GSH can be measured (reactive metabolites, glucuronidation) to observe if a dihydrodiol is observed by LCMS (fragmentation ions), which would correspond to a dihydroxylation on the core heterocycle.
(§2) CLint Microsomes (μL/Min/Mg) in Dog (d), Human (h), Mouse (m) and Rat (r) (all at 1 μm)

[2] = LM CLint (microsomal stability), mouse; format: in vitro ADME; details: 1 μm; for microsomal CLint at 1 µM: microsomes, read-out: CLint Microsomes, Mouse (m)
Description: as §1, §2

[3] = Mitochondrial toxicity (Glu/Gal) assay; format: cell-based; details: for Score: mitotoxicity score, Glu/Gal assay; for Δ IC50, glu/IC50, gal: ratio IC50 glu / IC50 gal
[4] = Chemical stability testing (LCMS); format: physicochemical; details: 30 µM
Method: • Add 3 μl of a 10 mM DMSO stock solution to 1 ml of the following solvents in a 1.5 ml HPLC vial. • DMSO (reference solution) • H2O/Acetonitril 1/1 (assay solution) • 0.1N HCl/Acetonitril 1/1 (assay solution) • Mix well, […] LCMS • Compare the chromatograms of the two assay solutions with the reference solution and report the additional peaks as degradation peaks

[5] = system: Mycobacterium tuberculosis strain EH4.0 expressing green-fluorescent protein (GFP); test: microbe, parasite or virus in culture; format: cell-based
[6] = Mycobacterium tuberculosis, Test 1 (and/or Test 2), M. tuberculosis
[7] = galactose medium (Glu/Gal mitotoxicity assay), read-out: IC50, gal
[8] = glucose medium (Glu/Gal mitotoxicity assay), read-out: IC50, glu

Row | Compound | microsomal CLint at 1 µM [1] [µL/min/mg] | microsomal CLint at 1 µM [2] [µL/min/mg] | pIC50 ([3]; read-out: IC50, gal) | pIC50 ([3]; read-out: IC50, glu) | pIC50 [3, 7] | pIC50 [3, 8] | AC50 [5, 6] [µM] | other results
1 | CCc1nc2ccc(Cl)cn2c1C(=O)NCc1cnc(-c2nc3n(n2)CCN(S(=O)(=O)C(F)(F)F)C3)c(F)c1 [Compound 15] | 16.2 | 50.6 | < 3.70 | < 3.70 | – | – | – | chemical stability, % by LCMS ([4]; 72 h): 97.03%; chemical stability, % by LCMS ([4]; 72 h, pH 1.6): 97.49%
2 | CCc1nc2nc3c(cn2c1C(=O)NCc1ccc(-c2nc4n(n2)CCN(S(=O)(=O)C(F)(F)F)C4)c(F)c1)CCOC3 [Compound 18] | 20.1 | 36.9 | 3.74 | < 3.70 | – | – | – | Score [3]: [x]1; Δ IC50, glu/IC50, gal [3]: >1.09
3 | CCc1nc2cc(Cl)c(C)cn2c1C(=O)NCc1ccc(-c2nc3n(n2)CCN(S(=O)(=O)C(F)(F)F)C3)c(F)c1 [Compound 19] | – | – | – | – | < 4.60 | < 4.60 | – | pIC50 [5, 6]: 6.48
4 | CCc1nc2ccc(C)cn2c1C(=O)NCc1ccc(-c2nc3n(n2)CCN(S(=O)(=O)C(F)(F)F)C3)cc1 [Compound 24] | 169 | 76.3 | < 3.70 | < 3.70 | – | – | – | chemical stability, % by LCMS ([4]; 0 h): 100%; chemical stability, % by LCMS ([4]; 0 h, pH 1.6): 100%; chemical stability, % by LCMS ([4]; 0 h, pH 9): 89.46%; chemical stability, % by LCMS ([4]; 48 h): 100%; chemical stability, % by LCMS ([4]; 48 h, pH 1.6): 100%; chemical stability, % by LCMS ([4]; 48 h, pH 9): 43.8%
5 | CCc1nc2ncc(C)cn2c1C(=O)NCc1ccc(-c2cc3n(n2)CCN(S(=O)(=O)C(F)(F)F)C3)cc1 [Compound 44] | 176 | 20 | < 3.70 | < 3.70 | – | – | – | chemical stability, % by LCMS ([4]; 48 h): 100%; chemical stability, % by LCMS ([4]; 48 h, pH 1.6): 100%
6 | CCc1nc2ncc(C)cn2c1C(=O)NCc1ccc(-c2nc3n(n2)CCN(S(=O)(=O)N2CCCC2)C3)cc1 [Compound 47] | 58.5 | 13.9 | < 3.70 | < 3.70 | – | – | – | chemical stability, % by LCMS ([4]; 48 h): 99%; chemical stability, % by LCMS ([4]; 48 h, pH 1.6): 100%
7 | CCc1nc2ncc(C)cn2c1C(=O)NCCc1ccc(-c2nc3n(n2)CCN(S(=O)(=O)C(F)(F)F)C3)cc1 [Compound 66] | 39.6 | 92.3 | < 3.70 | < 3.70 | – | – | – | pIC50 [5, 6]: 6.57; chemical stability, % by LCMS ([4]; 0 h): 91%; chemical stability, % by LCMS ([4]; 48 h): 98%; chemical stability, % by LCMS ([4]; 48 h, pH 1.6): 98%
8 | CCc1nc2ncc(C)cn2c1C(=O)NC1(c2ccc(-c3nc4n(n3)CCN(S(=O)(=O)C(F)(F)F)C4)cc2)CC1 [Compound 68] | – | – | < 4.00 | < 4.00 | – | – | – | pIC50 [5, 6]: < 6.30
9 | CCc1nc2ncc(C)cn2c1C(=O)NCc1cccc(Cc2nc3n(n2)CCN(S(=O)(=O)C(F)(F)F)C3)c1 [Compound 71] | – | – | < 3.70 | < 3.70 | – | – | – | pIC50 [5, 6]: < 6.30
10 | CCc1nc2ncc(C)cn2c1C(=O)NCc1coc(-c2nc3n(n2)CCN(S(=O)(=O)C(F)(F)F)C3)n1 [Compound 72] | – | – | < 3.70 | < 3.70 | – | – | – | pIC50 [5, 6]: < 6.30
11 | CCc1nc2ncc(C)cn2c1C(=O)NCc1ccc(-c2cc3n(n2)CCN(S(=O)(=O)C(F)(F)F)C3)c(C)c1 [Compound 84] | – | – | – | – | 4.20 | < 3.70 | – | AC50 [5]: 0.0076 µM; CLint Microsomes, Human (h) ([1]; 1 μm): 205 μL/Min/Mg; CLint Microsomes, Mouse (m) [2]: 21.2 μL/Min/Mg; Δ IC50, glu/IC50, gal [3]: >3.2
12 | CCc1nc2ncc(C)cn2c1C(=O)NCc1ccc(-c2nn3c(c2C)CN(S(=O)(=O)C(F)(F)F)CC3)cc1 [Compound 85] | – | – | – | – | 4.52 | < 3.70 | – | AC50 ([5]; Test 1 (and/or Test 2), M. tuberculosis): 0.018 µM; Score [3]: [x]3; Δ IC50, glu/IC50, gal [3]: >6.65
13 | CCc1nc2ncc(C)cn2c1C(=O)NCc1ccc(-c2nc3n(c2C)CCN(S(=O)(=O)C(F)(F)F)C3)cc1 [Compound 86] | – | – | < 4.00 | < 4.00 | – | – | 0.03 | –
14 | CCc1nc2ncc(C)cn2c1C(=O)NCc1ccc(-c2nn3c(c2C)CN(S(=O)(=O)C(F)(F)F)CC3)c(F)c1 [Compound 87] | – | – | – | – | 4.59 | 4.07 | – | AC50 [5]: 0.036 µM; Δ IC50, glu/IC50, gal [3]: 3.38
15 | CCc1nc2ncc(C)cn2c1C(=O)NCc1cccc(-c2cnn3c2CN(S(=O)(=O)C(F)(F)F)CC3)c1 [Compound 92] | – | – | 3.88 | 3.71 | – | – | > 0.5 | Score [3]: [x]1; Δ IC50, glu/IC50, gal [3]: 1.47
16 | Cc1cnc2nc(C3CC3)c(C(=O)NCc3ccc(-c4cn5c(n4)CN(S(=O)(=O)C(F)(F)F)CC5)cc3)n2c1 [Compound 94] | 98.1 | 18.1 | < 3.70 | < 3.70 | – | – | 0.063 | –
17 | Cc1cnc2nc(C3CC3)c(C(=O)NCc3ccc(-c4nc5n(n4)CCN(S(=O)(=O)C(F)(F)F)C5)c(C)c3)n2c1 [Compound 98] | 51.8 | 26.9 | 4.01 | 3.75 | – | – | 0.017 | Score [3]: [x]1; Δ IC50, glu/IC50, gal [3]: 1.81
18 | O=C(NCc1ccc(-c2cc3n(n2)CCN(S(=O)(=O)C(F)(F)F)C3)cc1)c1c(C2CC2)nc2ncc(Cl)cn12 [Compound 104] | – | – | – | – | < 4.30 | < 4.30 | 0.11 | –
19 | Cc1cnc2nc(C3CC3)c(C(=O)NCc3ccc(-c4cc5n(n4)CCN(S(=O)(=O)C(C)C)C5)cc3)n2c1 [Compound 106] | 111 | 83.4 | < 4.00 | < 4.00 | – | – | – | –
20 | Cc1cnc2nc(C3CC3)c(C(=O)NCc3ccc(-c4cn5c(n4)CN(S(=O)(=O)C(F)(F)F)CC5)c(F)c3)n2c1 [Compound 112] | – | – | – | – | < 4.00 | < 4.00 | 0.0095 | –
21 | Cc1cnc2nc(C(F)(F)F)c(C(=O)NCc3ccc(-c4nc5n(n4)CCN(S(=O)(=O)C(F)(F)F)C5)cc3)n2c1 [Compound 113] | – | – | – | – | < 4.00 | < 4.00 | 0.032 | –
22 | Cc1cnc2nc(C(F)(F)F)c(C(=O)NCc3ccc(-c4cc5n(n4)CCN(S(=O)(=O)C(F)(F)F)C5)cc3)n2c1 [Compound 114] | – | – | – | – | < 4.90 | < 4.90 | 0.0098 | –
23 | O=C(NCc1ccc(-c2nc3n(n2)CCN(S(=O)(=O)C(F)(F)F)C3)c(F)c1)c1c(C2CC2)nc2ccccn12 [Compound 123] | – | – | – | – | < 4.00 | < 4.00 | 0.018 | –
24 | CCc1nc2ncc(C)cn2c1C(=O)NCc1ccc(-c2cc3n(n2)CCN(S(=O)(=O)C(F)(F)F)C3)nc1 [Compound 127] | 31.5 | 9.29 | < 3.70 | < 3.70 | – | – | 0.049 | –
25 | CCc1nc2ncc(C)cn2c1C(=O)NCc1cnc(-c2cc3n(n2)CCN(S(=O)(=O)C(F)(F)F)C3)c(C)c1 [Compound 129] | 50.4 | 29.4 | < 3.70 | < 3.70 | – | – | – | –
